Consider two compounds from patent publication US20240343733A1, “COMPOUNDS FOR TARGETING DEGRADATION OF IRAK4 PROTEINS” (BIOGEN MA INC., priority 2021, published 2024).

In experiment [1] the target is T1, IKZF1 (Homo sapiens, UniProt Q13422).
T1 construct: endogenously expressing IKZF1 with HiBiT fusion tag via CRISPR
As to the kind of experiment: IKZF1 Degradation Assay, HiBiT Method. It is filed as cell-based. The settings on record: NCIH929 cells expressing HiBiT-tagged IKZF1, 6 hours, top concentration 10 μM. The procedure, abridged:
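NCIH929 cells expressing HiBiT-tagged IKZF1, 15000 cells/well in RPMI with 10% FBS and 0.05 mM 2-mercaptoethanol, exposed to compound 6 h at 37 °C. Remaining IKZF1 quantified by lytic HiBiT luminescence, normalised to untreated-cell and medium-only controls.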
A general note: With HiBiT, luminescence reflects the tagged protein that the partner subunit can reach.

Experiment [2] has as its target T2, IRAK4 (Canis lupus familiaris, UniProt A0A8I3S726).
T2 sequence (A0A8I3S726 1-460): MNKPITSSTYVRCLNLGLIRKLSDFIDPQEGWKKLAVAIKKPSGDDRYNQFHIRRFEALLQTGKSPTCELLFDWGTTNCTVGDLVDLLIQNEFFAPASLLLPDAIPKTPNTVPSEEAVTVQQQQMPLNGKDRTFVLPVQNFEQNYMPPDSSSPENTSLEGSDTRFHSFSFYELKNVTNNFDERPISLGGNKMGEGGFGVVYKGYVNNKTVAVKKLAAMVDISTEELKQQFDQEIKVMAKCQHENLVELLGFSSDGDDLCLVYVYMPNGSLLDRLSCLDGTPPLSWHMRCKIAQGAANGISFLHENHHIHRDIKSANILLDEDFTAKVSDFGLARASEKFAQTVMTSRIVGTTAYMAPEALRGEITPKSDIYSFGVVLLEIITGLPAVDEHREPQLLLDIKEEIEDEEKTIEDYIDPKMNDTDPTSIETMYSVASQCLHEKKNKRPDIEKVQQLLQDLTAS
Nature of the experiment: Pharmacodynamics (PD) in Male Beagle Dogs, IRAK4 quantitation in PBMCs by nanoLC-MS/MS. The settings on record: male beagle dog PBMCs. It is filed as in vivo. On the procedure: Assay 4. Pharmacodynamics (PD) in Male Beagle Dogs
Pharmacodynamics (PD) biomarker analyses of male beagle dog PMBCs from the whole blood timepoint samples collected in Assay 3 were performed.
For isolation of PBMCs, the whole blood timepoint samples described in Assay 3 above were processed immediately to ensure high viability of PBMCs. All the samples were processed at 18° C. to 20° C. The freshly collected whole blood (2 mL) was mixed with an equal volume of phosphate buffered saline. This mixture was inverted several times to ensure thorough mixing. The Histopaque® (Catalog no. 10771, Sigma-Aldrich, St. Louis, MO) bottle was inverted several times to ensure uniformity of the medium. A sterile syringe was used to draw 2 mL of Histopaque® medium and added to a sterile centrifuge tube. The whole blood-PBS sample (4 ml) was carefully layered on top of the Histopaque® medium, without mixing. The tube was centrifuge at 600 g for 30 to 40 min at 18° C. to 20° C. with the brakes turned off. The upper layer containing plasma and platelets was withdrawn slowly using a sterile pipette, leaving the PBMC cell layer undisturbed at the interface. The PBMC layer was transferred to a sterile centrifuge tube using a sterile pipette. The PBMCs were washed with 3 volumes (˜6 mL) of Hank's balanced salt solution (HBSS) (Gibco, Grand Island, NY) in the centrifuge tube. The cells were suspended by gently drawing them in and out of a pipette. The tubes were centrifuged at 250 g for 10 to 15 minutes at 18° C. to 20° C. and the supernatant discarded. The PBMCs were then resuspended in 6 to 8 ml of HBSS. For cell counting, the cell suspension was diluted 1:1 with Trypan Blue dye and mixed well. The cell numbers (live and dead) were counted, and cell viability calculated. The cell numbers and cell viability of each PBMC sample were recorded. The tube was centrifuged again at 500 g for 10 min at 18° C. to 20° C. The supernatant was removed, and the cell pellet was frozen at −80° C.
The frozen dog PBMC cell pellets were homogenized in two pellet volumes of lysis buffer (100 mM triethylammonium bicarbonate (TEAB), 4% SDS, 1× Roche protease inhibitor cocktail) by sonicating at 150 watt for 10 seconds in a 4° C. water bath using an E220 focused-ultrasonicator (Covaris, Woburn, MA, USA). Lysates were then clarified by centrifugation at 18,000 g for 20 minutes at 4° C. and protein concentrations were determined by bicinchoninic acid (BCA) assay (ThermoFisher Scientific, Waltham, MA, USA).
For protein digestion, an equal amount of protein was taken from each sample. Proteins were reduced with 10 mM DTT for 10 minutes at 70° C. and alkylated with 25 mM iodoacetamide for 30 minutes in the dark. Tryptic digestion was performed with S-Trap™ method (Protifi, Farmingdale, NY, USA) overnight at 37° C. In brief, samples were mixed with 90% MeOH in 100 mM TEAB containing 10% (w/w) trypsin and loaded onto an in-house packed S-Trap microcolumns. Samples were washed with 90% MeOH in 100 mM TEAB, and digested in 100 mM TEAB for 16 hours at 37° C. The resulting peptides were spiked with five heavy-labeled IRAK4 peptides (Vivitide, LLC, Gardner, MA, USA) at 2 fmol each (column loading), desalted using C18 StageTip, SpeedVac dried, and kept at −80 C until nanoLC-MS/MS analysis.
Peptide analysis was performed on a nanoLC-MS/MS platform composed of a Q Exactive HF mass spectrometer coupled to an EASY-nLC 1200 (ThermoFisher Scientific). Peptides were separated on an EASY-Spray™ C18 column (50 cm×75 am, 2 am) (ThermoFisher Scientific) at 50° C. Mobile phases were 0.1% formic acid in water (A) and 80% acetonitrile, 0.1% formic acid (B). Peptides were eluted with a 100-min method over an effective 80 min gradient from […] to 45% B at a flow rate of 275 nL/min. Peptides were ionized with a spray voltage of 1,800 V. Mass spectrometric data were acquired at parallel reaction monitoring (PRM) mode including five pairs of light and heavy IRAK4 peptides (Table 7 below). […]

A value given as a limit tells only on which side of the number the result lay.

T1 sequence (Q96SW2 whole entry partner, the tested form may be a part): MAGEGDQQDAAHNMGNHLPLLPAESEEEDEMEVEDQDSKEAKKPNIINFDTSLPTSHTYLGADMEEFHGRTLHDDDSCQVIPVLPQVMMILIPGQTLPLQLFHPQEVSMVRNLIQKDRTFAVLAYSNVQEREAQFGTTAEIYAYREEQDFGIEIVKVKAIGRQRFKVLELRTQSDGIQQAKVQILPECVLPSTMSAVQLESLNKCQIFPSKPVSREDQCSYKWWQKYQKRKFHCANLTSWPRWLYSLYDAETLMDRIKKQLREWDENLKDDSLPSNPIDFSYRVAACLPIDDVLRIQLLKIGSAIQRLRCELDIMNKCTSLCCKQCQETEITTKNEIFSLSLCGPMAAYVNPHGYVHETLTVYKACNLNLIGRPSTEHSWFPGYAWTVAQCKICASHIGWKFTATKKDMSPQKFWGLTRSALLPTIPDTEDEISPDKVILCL
T1 sequence (Q16531 whole entry partner, the tested form may be a part): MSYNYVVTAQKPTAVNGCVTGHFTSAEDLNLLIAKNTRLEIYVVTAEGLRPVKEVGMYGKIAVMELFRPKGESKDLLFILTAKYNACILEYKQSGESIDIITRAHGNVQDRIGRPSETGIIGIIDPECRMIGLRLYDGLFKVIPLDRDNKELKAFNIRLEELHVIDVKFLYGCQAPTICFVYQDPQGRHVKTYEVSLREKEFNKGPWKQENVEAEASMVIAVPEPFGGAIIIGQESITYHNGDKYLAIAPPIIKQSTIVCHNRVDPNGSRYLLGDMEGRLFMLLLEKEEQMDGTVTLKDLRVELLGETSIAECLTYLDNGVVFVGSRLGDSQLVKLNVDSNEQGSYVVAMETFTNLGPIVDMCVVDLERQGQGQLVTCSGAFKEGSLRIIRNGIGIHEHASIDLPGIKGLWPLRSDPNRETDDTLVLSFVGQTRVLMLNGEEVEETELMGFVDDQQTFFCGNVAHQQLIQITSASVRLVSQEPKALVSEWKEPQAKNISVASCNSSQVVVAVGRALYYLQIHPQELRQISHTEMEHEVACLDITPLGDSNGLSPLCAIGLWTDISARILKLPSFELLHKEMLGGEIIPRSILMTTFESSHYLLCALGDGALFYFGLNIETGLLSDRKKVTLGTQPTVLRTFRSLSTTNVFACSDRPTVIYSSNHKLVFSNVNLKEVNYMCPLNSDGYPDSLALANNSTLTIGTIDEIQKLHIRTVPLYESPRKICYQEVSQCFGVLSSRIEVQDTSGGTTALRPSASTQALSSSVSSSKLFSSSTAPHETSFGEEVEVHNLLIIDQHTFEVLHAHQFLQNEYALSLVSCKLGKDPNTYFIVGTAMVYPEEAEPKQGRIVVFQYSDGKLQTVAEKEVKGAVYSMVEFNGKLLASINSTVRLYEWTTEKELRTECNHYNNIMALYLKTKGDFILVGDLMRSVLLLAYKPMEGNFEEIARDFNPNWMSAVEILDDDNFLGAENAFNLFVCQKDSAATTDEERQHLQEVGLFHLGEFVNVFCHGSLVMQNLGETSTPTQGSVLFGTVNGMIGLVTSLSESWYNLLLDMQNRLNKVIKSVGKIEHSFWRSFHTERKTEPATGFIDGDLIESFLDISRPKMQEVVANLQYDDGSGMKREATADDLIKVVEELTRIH
T1 sequence (Q13422 whole entry, the tested form may be a part): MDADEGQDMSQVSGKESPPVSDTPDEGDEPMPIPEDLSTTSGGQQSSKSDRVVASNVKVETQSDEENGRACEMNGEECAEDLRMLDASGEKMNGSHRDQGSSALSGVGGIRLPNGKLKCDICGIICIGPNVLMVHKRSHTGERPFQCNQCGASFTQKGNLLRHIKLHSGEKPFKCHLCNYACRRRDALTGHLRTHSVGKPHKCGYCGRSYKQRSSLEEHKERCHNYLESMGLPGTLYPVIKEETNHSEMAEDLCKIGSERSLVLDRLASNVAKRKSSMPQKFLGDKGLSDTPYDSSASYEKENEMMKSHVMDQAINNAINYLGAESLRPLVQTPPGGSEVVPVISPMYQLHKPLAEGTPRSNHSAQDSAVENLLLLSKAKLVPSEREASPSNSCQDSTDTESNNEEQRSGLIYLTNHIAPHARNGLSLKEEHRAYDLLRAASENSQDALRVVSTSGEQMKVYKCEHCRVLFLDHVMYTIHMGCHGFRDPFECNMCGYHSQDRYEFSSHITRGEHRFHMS

The DC50 is the concentration giving 50% degradation. A high value points to a less potent degrader. Compound `CC(C)Oc1cc2nc([C@H]3CC[C@H](CN4CCC(c5ccc6c(c5)n(C)c(=O)n6C5CCC(=O)NC5=O)CC4)CC3)cn2cc1C(=O)Nc1cnn2cccnc12` (some centres unmarked) [Compound 48, 2-[4-[[4-[1-(2,6-dioxo-3-piperidyl)-3-methyl-2-oxo-benzimidazol-5-yl]-1-piperidyl]methyl]cyclohexyl]-7-isopropoxy-N-pyrazolo[1,5-a]pyrimidin-3-yl-imidazo[1,2-a]pyridine-6-carboxamide] yielded a DC50 in experiment [1] of more than 10 µM. Moreover, the “IRAK4 change from vehicle” value in experiment [2] (time 0 h) is on record as “+12%”; in experiment [2] (time 2 h) it was −51%; in experiment [2] (time 24 h), −97%; in experiment [2] (time 48 h), −95%; in experiment [2] (time 96 h), −95%.
On to `CC(C)Oc1cc2nc([C@H]3CC[C@H](CN4CCC(c5ccc6c(c5)n(C)c(=O)n6C5CCC(=O)NC5=O)CC4)CC3)cn2cc1C(=O)Nc1cccn([C@H]2C[C@H]2F)c1=O` (stereo partly drawn) [Compound 169, 2-((1R,4S)-4-((4-(1-(2,6-dioxopiperidin-3-yl)-3-methyl-2-oxo-2,3-dihydro-1H-benzo[d]imidazol-5-yl)piperidin-1-yl)methyl)cyclohexyl)-N-(1-((1S,2R)-2-fluorocyclopropyl)-2-oxo-1,2-dihydropyridin-3-yl)-7-isopropoxyimidazo[1,2-a]pyridine-6-carboxamide], for which the “IRAK4 change from vehicle” value is recorded as −11% in experiment [2] (time 0 h); −57% in experiment [2] (time 2 h); −97% in experiment [2] (time 24 h); −96% in experiment [2] (time 48 h); −95% in experiment [2] (time 96 h).
